Test results: patent US9233109B2, “Compositions, methods of use, and methods of treatment” (UNIVERSITY OF FLORIDA RESEARCH FOUNDATION, INC., priority 2010, dated 2016)
Read-outs that look alike come from different tables or passages of the source.

Columns and labels:
[1] = target: T1, LS α4β2 (α4(3)β2(2)) nAChR (Homo sapiens, UniProt P17787+P43681); assay: Bath application of test compound: inhibition of ACh-evoked peak currents in Xenopus oocytes; format: cell-based
T1 construct: expressed in transfected cells; host or cells: Xenopus laevis oocytes injected with cRNA
Description: (§1) We have extended this approach to defined receptor subtypes expressed in Xenopus oocytes. Experiments were conducted on cells expressing HS α4β2 (α4(2)β2(3)), LS α4β2 (α4(3)β2(2)), or α7 nAChR.
(§2) cDNA: Human nAChR receptor clones and concatamers were obtained from Dr. Jon Lindstrom (University of Pennsylvania, Philadelphia Pa.). The human RIC-3 clone, obtained from Dr. Millet Treinin (Hebrew University, Jerusalem Israel), was co-injected with α7 to improve the levels and speed of receptor expression.
(§3) Oocyte preparation: Oocytes were surgically removed from mature Xenopus laevis frogs and injected with 50 nl (5-20 ng) of appropriate nAChR subunit cRNAs as described previously (Horenstein et al., 2008).
(§4) Experiments were conducted using OpusXpress 6000A (Molecular Devices, Union City Calif.) and analyzed as described previously (Papke and Papke, 2002; Horenstein et al., 2008; Papke and Stokes, 2010).
(§5) Initial experiments were run for 50 minutes after the introduction of the experimental compounds into the bath.

[2] = target: T2, HS α4β2 (α4(2)β2(3)) nAChR (Homo sapiens, UniProt P17787+P43681); assay: as above; format: cell-based
T2 construct: expressed in transfected cells; host or cells: Xenopus laevis oocytes injected with cRNA
Description: as §1, §2, §3, §4, §5

α7 nAChR [3] = target: T3, α7 nAChR (Homo sapiens, UniProt P36544); assay: Bath application of test compound: modulation of ACh-evoked net charge responses in Xenopus oocytes; format: cell-based
T3 construct: expressed in transfected cells; host or cells: Xenopus laevis oocytes injected with cRNA
Description: as §1, §2, §3, §4, §5

α7 nAChR [4] = target: T3, α7 nAChR; assay: Acute co-application of ACh and S 24795, model fit of net charge responses in oocytes; format: cell-based
Source text: (§6) FIG. 2.1 illustrates a model applied to the activation of nAChR by simultaneous co-applications of the full agonist “a” and a partial agonist “p”. […] The IMax of the full agonist is assigned a value of 1. The first and second terms of the equation represent the activation produced by the full agonist and partial agonists, respectively, scaled by their potencies and weighted by receptor availability. The third term allows noncompetitive effects of the partial agonist. If such noncompetitive activity is inhibitory, then ni is assigned a negative value.
(§7) Acute responses to agonist/partial agonist applications were fit with a general non-linear regression model, implemented as an option in a Windows data analyses and graphical presentation program (CAS Data Forge). The terms na, np, ni, Rmaxp, Inmaxp, EC50a, EC50p, and IC50p were given starting estimates based on the data obtained with the drugs applied separately. Tolerance factor (typically 1×10^−5) range limits for each parameter were specified. […] A predicted matrix was then calculated for each cell of the matrix, based on the a and p concentrations, the set of parameters listed above, and the governing equation. The residuals across all cells were calculated, and an iterative process was utilized to revise the parameters to minimize the residuals and allow the estimates to be revised accordingly. When the difference of estimates for any given parameter for consecutive iterations fell below the tolerance factor, that parameter was fixed at the last estimate. When all parameters were fixed or no convergent solution was found, the process stopped, and the set of parameters representing the best fit along with the resulting matrix was provided.
(§8) The Imax for the full agonist was constrained to 1 while the Imax for the partial agonist was a free parameter <1.0.
(§9) Curve fit values for the drugs when applied alone were used as seeds for the competitive interactions.

α4(3)β2(2) nAChR [5] = target: T4, α4(3)β2(2) nAChR (Homo sapiens, UniProt P17787+P43681); assay: Acute co-application of ACh and cytisine, model fit of peak current responses in oocytes; format: cell-based
T4 construct: expressed in transfected cells; host or cells: Xenopus laevis oocytes injected with cRNA
Source text: as §6, §7, §8, §9

[6] = Mineur et al., 2009; cited from earlier work
α4(2)β2(2)α5 nAChR [7] = target: T5, α4(2)β2(2)α5 nAChR (Homo sapiens, UniProt P17787+P30532+P43681); assay: Bath application of test compound: inhibition of ACh-evoked responses in Xenopus oocytes; format: cell-based
T5 construct: expressed in transfected cells; host or cells: Xenopus laevis oocytes injected with cRNA
Description: as §2, §3, §4, §5
(§10) Recently, attention has been drawn to α5 as a member of a gene cluster associated with high risk for cancer and heavy smoking (Saccone et al., 2007). In the periphery, α5 is most likely expressed in association with the other members of its gene cluster, α3 and β4.

α4β2 receptors = conditions: cited from earlier work
α4β2α5 nAChR = target: T6, α4β2α5 nAChR (Homo sapiens, UniProt P17787+P30532+P43681); assay: Agonist activation of α4β2α5 receptors in oocytes; format: cell-based
T6 construct: expressed in transfected cells; host or cells: Xenopus laevis oocytes injected with cRNA
Source text: as §10

α4(2)β2(2)α5 nAChR [8] = target: T5, α4(2)β2(2)α5 nAChR; assay: Mecamylamine-sensitive steady-state activation during bath application, oocytes; format: cell-based; conditions: bath concentration 1 μM
Source text: (§11) In our bath application experiments we frequently saw small responses at the beginning of the bath applications, and sometimes there were significant shifts in baseline holding current that occurred over the long periods of recording. While increases in baseline current would be consistent with the stimulation of steady-state currents, baseline shifts can occur for other reasons as well, especially if the quality of the voltage clamp diminished over a long period of recording.
(§12) Even after just 30 minutes of continual bath application, a large shift in baseline was apparent. […] Table 3 provides a summary of the mecamylamine-sensitive steady-state currents measured for each of the drug-receptor combinations associated with drifting baselines.

α4(2)β2(3) nAChR = target: T7, α4(2)β2(3) nAChR (Homo sapiens, UniProt P17787+P43681); assay: as above; format: cell-based; conditions: bath concentration 100 nM
T7 construct: expressed in transfected cells; host or cells: Xenopus laevis oocytes injected with cRNA
Source text: as §11, §12

α4(3)β2(2) nAChR [9] = target: T4, α4(3)β2(2) nAChR; assay: as above; format: cell-based; conditions: bath concentration 300 nM
Source text: as §11, §12

[10] = system: α4(3)β2(2), α4(2)β2(3) and α7 nAChR; assay: Baseline shifts / steady-state currents in the presence of bath-applied 3-pyr-Cyt, oocytes; format: cell-based, human; conditions: bath application
Description: FIG. 2.8 is a summary of the effects of bath-applied 3-pyr-Cyt on α4(3)β2(2) and α4(2)β2(3) and α7 nAChR. Bath application experiments were conducted as described for cytisine, varenicline, and nicotine.
One such compound is 3-(pyridin-3′-yl)-cytisine (3-pyr-Cyt), an agent proposed to have very little likelihood of off-target α7 activity (Mineur et al., 2009).

[11] = preliminary findings of clinical trials, schizophrenics; cited from earlier work
human α7 receptors = human α7 receptors (Homo sapiens, UniProt P36544); conditions: cited from earlier work
[12] = read-out: IC50 for the inhibition of ACh evoked responses by bath applications of agonists and partial agonists, Table 2, after 30±4 min bath application, 30 μM ACh
[13] = read-out: IC50 for the inhibition of ACh evoked responses by bath applications of agonists and partial agonists, Table 2, after 30±4 min bath application, 10 μM ACh
[14] = noncompetitive inhibition factor
[15] = noncompetitive inhibition factor, read-out: Inhibition IC50 of the partial agonist (best fit)
[16] = relative to ACh maximum, ACh constrained to 1
[17] = IC50, inhibition of ACh-evoked responses by prolonged bath application
[18] = IC50 for the inhibition of ACh evoked responses by bath applications of agonists and partial agonists
[19] = Example 1, average of 30-40 min time points, 60 μM ACh, net charge, read-out: IC50, inhibition of ACh-evoked responses by prolonged bath application
[20] = read-out: IC50, inhibition of ACh-evoked responses by prolonged bath application

T3 sequence (P36544 23-502): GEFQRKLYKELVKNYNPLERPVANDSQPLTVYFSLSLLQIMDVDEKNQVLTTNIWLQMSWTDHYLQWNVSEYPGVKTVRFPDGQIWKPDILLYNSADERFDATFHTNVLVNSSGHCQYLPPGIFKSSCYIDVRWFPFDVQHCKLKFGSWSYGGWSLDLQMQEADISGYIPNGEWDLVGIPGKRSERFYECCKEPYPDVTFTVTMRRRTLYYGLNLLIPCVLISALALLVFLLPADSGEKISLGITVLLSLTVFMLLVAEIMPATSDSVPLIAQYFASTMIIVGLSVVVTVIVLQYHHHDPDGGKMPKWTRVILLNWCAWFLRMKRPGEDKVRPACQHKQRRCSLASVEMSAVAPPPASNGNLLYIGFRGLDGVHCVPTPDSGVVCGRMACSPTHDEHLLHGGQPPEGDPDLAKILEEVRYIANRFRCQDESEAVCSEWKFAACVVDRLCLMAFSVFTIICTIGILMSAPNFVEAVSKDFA
T5 sequence (P17787 26-502): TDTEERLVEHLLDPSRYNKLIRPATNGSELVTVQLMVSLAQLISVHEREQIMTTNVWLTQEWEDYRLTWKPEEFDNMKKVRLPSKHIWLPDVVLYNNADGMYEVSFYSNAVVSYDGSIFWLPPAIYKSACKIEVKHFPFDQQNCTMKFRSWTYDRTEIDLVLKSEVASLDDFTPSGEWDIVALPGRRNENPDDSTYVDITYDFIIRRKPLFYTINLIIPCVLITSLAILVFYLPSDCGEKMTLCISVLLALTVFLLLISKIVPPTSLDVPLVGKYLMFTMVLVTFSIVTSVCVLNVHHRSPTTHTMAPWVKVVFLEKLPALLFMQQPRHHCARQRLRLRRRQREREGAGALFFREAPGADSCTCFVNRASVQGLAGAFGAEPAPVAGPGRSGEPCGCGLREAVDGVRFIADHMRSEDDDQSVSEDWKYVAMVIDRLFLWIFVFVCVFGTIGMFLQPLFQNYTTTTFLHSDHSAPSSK
T5 sequence (P43681 29-627 limits assumed): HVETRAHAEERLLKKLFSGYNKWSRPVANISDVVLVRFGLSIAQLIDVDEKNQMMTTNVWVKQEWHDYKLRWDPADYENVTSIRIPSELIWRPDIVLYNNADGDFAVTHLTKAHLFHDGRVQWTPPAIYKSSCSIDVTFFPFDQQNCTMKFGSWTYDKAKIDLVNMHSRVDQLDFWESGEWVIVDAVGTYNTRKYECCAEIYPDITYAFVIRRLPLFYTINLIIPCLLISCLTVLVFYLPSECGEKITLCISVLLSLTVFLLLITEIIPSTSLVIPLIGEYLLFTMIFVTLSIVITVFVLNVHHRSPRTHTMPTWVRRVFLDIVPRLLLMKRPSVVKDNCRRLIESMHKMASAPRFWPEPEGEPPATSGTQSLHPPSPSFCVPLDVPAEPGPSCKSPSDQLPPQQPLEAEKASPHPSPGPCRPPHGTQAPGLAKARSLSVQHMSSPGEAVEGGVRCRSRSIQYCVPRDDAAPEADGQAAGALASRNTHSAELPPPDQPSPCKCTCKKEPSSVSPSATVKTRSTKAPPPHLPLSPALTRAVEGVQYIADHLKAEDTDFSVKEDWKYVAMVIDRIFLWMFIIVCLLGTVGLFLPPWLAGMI
T5 sequence (P30532 23-468): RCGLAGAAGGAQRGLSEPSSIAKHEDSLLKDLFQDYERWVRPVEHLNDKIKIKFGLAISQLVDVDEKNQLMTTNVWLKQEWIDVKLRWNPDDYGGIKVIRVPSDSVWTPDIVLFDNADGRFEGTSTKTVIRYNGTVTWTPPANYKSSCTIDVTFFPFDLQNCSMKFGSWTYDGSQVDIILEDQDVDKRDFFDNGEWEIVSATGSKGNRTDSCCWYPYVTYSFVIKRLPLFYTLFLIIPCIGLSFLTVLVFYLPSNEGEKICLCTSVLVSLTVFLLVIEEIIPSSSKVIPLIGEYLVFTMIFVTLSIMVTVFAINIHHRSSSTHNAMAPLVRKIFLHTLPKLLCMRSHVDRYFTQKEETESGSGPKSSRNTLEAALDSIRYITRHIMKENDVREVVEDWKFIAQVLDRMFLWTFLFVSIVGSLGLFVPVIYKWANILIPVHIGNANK
T1 sequence (P17787 26-502): as the sequence (P17787 26-502) above
T1 sequence (P43681 29-627 limits assumed): as the sequence (P43681 29-627 limits assumed) above
T1 sequence (P43681 29-627 limits assumed): as above
T2 sequence (P17787 26-502): as the sequence (P17787 26-502) above
T2 sequence (P43681 29-627 limits assumed): as the sequence (P43681 29-627 limits assumed) above
T2 sequence (P17787 26-502): as the sequence (P17787 26-502) above
T6 sequence (P17787 26-502): as above
T6 sequence (P43681 29-627 limits assumed): as the sequence (P43681 29-627 limits assumed) above
T6 sequence (P30532 23-468): as the sequence (P30532 23-468) above
T4 sequence (P17787 26-502): as the sequence (P17787 26-502) above
T4 sequence (P43681 29-627 limits assumed): as the sequence (P43681 29-627 limits assumed) above
T4 sequence (P43681 29-627 limits assumed): as above
Sequence of human α7 receptors (P36544 23-502): as the sequence (P36544 23-502) above
T7 sequence (P17787 26-502): as the sequence (P17787 26-502) above
T7 sequence (P43681 29-627 limits assumed): as the sequence (P43681 29-627 limits assumed) above
T7 sequence (P17787 26-502): as the sequence (P17787 26-502) above

SMILES: C[n+]1ccccc1CC(=O)c1ccc(Br)cc1 [S 24795, 2-[2-(4-bromophenyl)-2-oxoethyl]-1-methylpyridinium]
- IC50 [1, 12]: 36 µM
- IC50 [2, 13]: 53 µM
- IC50 (α7 nAChR [3]; read-out: IC50 for the inhibition of ACh evoked responses by bath applications of agonists and partial agonists, Table 2, after 30±4 min bath application, 60 μM ACh, * = inhibition following a phase of potentiation): 15 µM
- Activation n (Hill coefficient, best fit) (α7 nAChR [4]): 0.85
- best fit IC50 relative to EC50 (higher) (α7 nAChR [4]): 70 fold
- EC50 (α7 nAChR [4]; net charge, read-out: Activation EC50 (best fit)): 14 µM
- Inhibition Inmax of the partial agonist (best fit) (α7 nAChR [4]; [14]): 1.0
- Inhibition n (Hill coefficient, best fit) (α7 nAChR [4]; [14]): 0.26
- IC50 (α7 nAChR [4]; [15]): 1000 µM
- Activation Rmax (best fit) (α7 nAChR [4]; [16]): 0.20

SMILES: O=c1cccc2n1C[C@@H]1CNC[C@H]2C1 [Cytisine, cytisine]
- Activation n (Hill coefficient, best fit) (α4(3)β2(2) nAChR [5]): 0.61
- best fit IC50 relative to EC50 (α4(3)β2(2) nAChR [5]): three-fold lower
- Inhibition Inmax of the partial agonist (best fit) (α4(3)β2(2) nAChR [5]; [14]): 0.7
- Inhibition n (Hill coefficient, best fit) (α4(3)β2(2) nAChR [5]; [14]): 1.7
- IC50 (α4(3)β2(2) nAChR [5]; [15]): 32 µM
- EC50 (α4(3)β2(2) nAChR [5]; peak current, read-out: Activation EC50 (best fit)): 88 µM
- Activation Rmax (best fit) (α4(3)β2(2) nAChR [5]; [16]): 0.35
- IC50 [1, 17]: 0.085 ± 0.044 µM
- IC50 [1, 18]: 0.027 ± 0.014 µM
- IC50 [2]: 0.008 ± 0.005 µM
- potency at reducing immobility compared with mecamylamine [6]: equipotent as the pure antagonist mecamylamine
- IC50 (α4(2)β2(2)α5 nAChR [7]): 0.0032 ± 0.0016 µM
- IC50 (α7 nAChR [3]; [17]): 0.3 ± 0.2 µM
- IC50 (α7 nAChR [3]; [18]): 1.2 µM
- efficacy for α4β2 receptors, % that of ACh (α4β2 receptors): < 20%
- EC50 (α4β2α5 nAChR): 0.018 ± 0.009 µM
- efficacy for α4β2α5 receptors, % that of ACh (α4β2α5 nAChR): 6±1%
- Mecamylamine-sensitive steady-state activation relative to ACh maximum evoked transient responses (α4(2)β2(2)α5 nAChR [8]): 2.5 ± 0.5%
- Mecamylamine-sensitive steady-state activation relative to ACh maximum evoked transient responses (α4(2)β2(3) nAChR): 1.4 ± 0.1%
- Mecamylamine-sensitive steady-state activation relative to ACh maximum evoked transient responses (α4(3)β2(2) nAChR [9]): 1.1 ± 0.2%

SMILES: C[N+](C)(C)CCO [choline]
- IC50 (α7 nAChR [3]; [17]): 6.7 ± 1.2 µM

SMILES: CN1CCCC1c1cccnc1 (stereo not shown) [Nicotine, nicotine]
- efficacy for α4β2α5 receptors, % that of ACh (α4β2α5 nAChR): approximately 35%

SMILES: O=c1c(-c2cccnc2)ccc2n1C[C@@H]1CNC[C@H]2C1 [3-pyr-Cyt, 3-(pyridin-3′-yl)-cytisine]
- IC50 ([1]; Example 1, average of 30-40 min time points, 30 μM ACh, peak currents, read-out: IC50, inhibition of ACh-evoked responses by prolonged bath application): 5.4 ± 4 µM
- IC50 [1, 12]: 16 µM
- effect on ACh-evoked responses at low concentration ([2]; 30 nM in bath): partial inhibition
- IC50 ([2]; Example 1, average of 30-40 min time points, 10 μM ACh, peak currents, read-out: IC50, inhibition of ACh-evoked responses by prolonged bath application): 0.653 ± 0.5 µM
- IC50 [2, 13]: 0.6 ± 0.5 µM
- baseline shifts or steady-state currents [10]: no baseline shifts or steady-state currents
- IC50 (α4(2)β2(2)α5 nAChR [7]; read-out: IC50 for the inhibition of ACh evoked responses by bath applications of agonists and partial agonists, Table 2, after 30±4 min bath application, 3 μM ACh): 2.3 µM
- IC50 (α7 nAChR [3]; [19]): 103 ± 25 µM
- concentration at which significant inhibition of α7-mediated responses was achieved (α7 nAChR [3]; highest concentration tested): 100 µM

SMILES: c1cnc2cc3c(cc2n1)C1CNCC3C1 [Varenicline, 7,8,9,10-tetrahydro-6,10-methano-6H-pyrazino (2,3-h)(3) benzazepine]
- inhibition at 1 µM (α4(2)β2(2)α5 nAChR [7]; read-out: inhibition of transient ACh-evoked responses): 100%
- efficacy for α4β2α5 receptors, % that of ACh (α4β2α5 nAChR): 9±1%

SMILES: COc1ccc(/C=C2\CCCN=C2c2cccnc2)c(OC)c1 [GTS-21, 3-(2,4-dimethoxybenzylidene)anabaseine]
- clinical ratings of negative symptoms [11]: improved clinical ratings of negative symptoms
- IC50 [1, 20]: 1 ± 0.4 µM
- IC50 [2, 20]: 0.17 ± 0.1 µM
- IC50 (α7 nAChR [3]): 1.3 µM
- IC50 (α7 nAChR [3]; [19]): 1.2 ± 0.4 µM
- α7 ACh-evoked responses above the baseline controls (α7 nAChR [3]; bath application of 30 nM): 37±15%
- bath concentrations at which α7 ACh-evoked responses were inhibited (α7 nAChR [3]; long-term bath application, net charge): greater than 300 nM
- EC50 (human α7 receptors; Papke and Papke, 2002, read-out: EC50 for transient receptor activation): ~6 µM
- efficacy for human α7 receptors, % that of ACh (human α7 receptors): about 20%
